Measurements as given in patent publication US20110230430A1, “SAPONIN EXTRACT FROM SAPONARIA SPP. AND USES THEREOF” (NATIONAL RESEARCH COUNCIL OF CANADA, priority 2008, published 2011).

What was measured:
Assay type in all cases: cell-based, human
PC-3 cells = assay: APO LOGIX Carboxyfluorescein Caspase 9 Detection Kit in PC-3 cells
From the text: In a still further apoptotic assay, apoptosis can be measured by the APO LOGIX™ Carboxyfluorescein Caspase 9 Detection Kit. The APO LOGIX™ Carboxyfluorescein Caspase 9 Detection Kit uses a cell permeable carboxyfluorescein labeled caspase inhibitor, which binds covalently to active caspases 9. Caspase 9 is involved in initiating apoptosis through the mitochondrial pathway (Budihardjo I., et al. 1999). Cells that contain bound inhibitor are detected by an increase in fluorescence when samples are analyzed by flow cytometry.
PC-3 cells (ATCC #CRL-1435) were derived from a prostate adenocarcinoma (Kaighn et al., 1979). They were maintained in RPMI 1640 medium (Gibco) supplemented with 10% fetal bovine serum (Cansera), 100 U/mL penicillin, and 100 μg/mL streptomycin and 0.25 μg/mL amphotericin B. Cultures were maintained in medium at 37° C. with 5% CO2 and 100% relative humidity.
PC-3 cells were seeded in tissue culture flasks with regular growth medium and maintained under normal conditions. After cells had adhered, the tissue culture medium was replaced with medium containing PC1448 dissolved in DMSO with the final concentration of DMSO not exceeding 0.05%. For each assay, a flask of untreated cells was grown in media containing the same amount of DMSO as in the PC1448 treated samples. Following incubation under normal growth conditions for the specified time, cells were washed once with cold phosphate-buffered saline (PBS) (137 mM NaCl, 2.7 mM KCl, 4.3 mM Na2HPO4.7H2O, 1.4 mM KH2PO4) and harvested as previously described. Assays were carried out according to instructions given in kits. All Flow Cytometry was performed using a Coulter Epics XL (Beckman).

HT-29 cancer cells = assay: Dual Sensor: MitoCasp Assay in HT-29 colon cancer cells; details: HT-29 cells, 2.5 μM, 5.0 μM and 10 μM, 23 hours
From the text: Techniques to assay enzymatic and signaling processes involved in apoptosis have been developed as standard protocols. One example of an early step in apoptosis, is the release of cytochrome C from mitochondria and the activation of caspase-3. Induction of the caspases (a series of cytosolic proteases) is one of the most consistently observed features of apoptosis. Caspases are a family of proteolytic enzymes that transmit the apoptotic signal using a proteolytic cascade. […] Caspases 3 and 7 are effector caspases, central to the caspase cascade pathways. In particular, caspase-3 plays a central role in the process. When caspases are activated, they cleave target proteins; one of the most important of these is poly-(ADP-ribose) polymerase (PARP), which is a protein located in the nucleus. Therefore, assays detecting release of cytochrome C, detecting caspase-3 activity and detecting PARP degradation are effective determinants of apoptosis. The loss of mitochondrial membrane potential is known to occur during apoptosis. […] Collapse of the mitochondrial membrane potential during apoptosis prevents the dye from accumulating in the mitochondria resulting in a decrease in fluorescent intensity that can be detected with flow cytometry. […] In this assay, caspase 3/7 activity is detected using a cell permeable carboxyfluorescein labeled caspase inhibitor, which binds covalently to active caspases 3 and 7. Cells that contain bound inhibitor are detected by an increase in fluorescence when samples are analyzed by flow cytometry.
Following PC1448 treatment, adherent and non-adherent cells were harvested and washed with cold PBS. […] Samples were analyzed by flow cytometry measuring the fluorescence emissions from 515 nm to 530 nm for caspase detection, and 574 nm to 600 nm for mitochondrial membrane potential detection. […]
HT-29 cancer cells were treated with 2.5 μM, 5.0 μM and 10 μM of PC1526 or PC1448 for 23 hours, or with 2.5 μM, 5.0 μM and 10 μM PC1422 for 24 hours and assessed using the Dual Sensor: MitoCasp™ Assay. […]

WiDr colon cancer cells = assay: Dual Sensor: MitoCasp Assay in WiDr colon cancer cells; details: 2.5 μM, 5.0 μM, 10 μM, and 15 μM, 24 hours
From the text: (§1) Techniques to assay enzymatic and signaling processes involved in apoptosis have been developed as standard protocols. One example of an early step in apoptosis, is the release of cytochrome C from mitochondria and the activation of caspase-3. Induction of the caspases (a series of cytosolic proteases) is one of the most consistently observed features of apoptosis. Caspases are a family of proteolytic enzymes that transmit the apoptotic signal using a proteolytic cascade. […] Caspases 3 and 7 are effector caspases, central to the caspase cascade pathways. In particular, caspase-3 plays a central role in the process. When caspases are activated, they cleave target proteins; one of the most important of these is poly-(ADP-ribose) polymerase (PARP), which is a protein located in the nucleus. […] Collapse of the mitochondrial membrane potential during apoptosis prevents the dye from accumulating in the mitochondria resulting in a decrease in fluorescent intensity that can be detected with flow cytometry. […] In this assay, caspase 3/7 activity is detected using a cell permeable carboxyfluorescein labeled caspase inhibitor, which binds covalently to active caspases 3 and 7. Cells that contain bound inhibitor are detected by an increase in fluorescence when samples are analyzed by flow cytometry. […]

[1] = tested on: CRL-2522 (normal fibroblast) cells; assay: Hoechst 33342 staining of CRL-2522 cells; details: 7 μM PC1448, 24 hours
From the text: Apoptosis can also be measured by Hoechst 33342 Staining. Cells undergoing apoptosis show several characteristic morphological changes. These changes include cell shrinkage and rounding, and the formation of cytoplasmic blebs on the cell surface. Nuclear material condenses along the edge of the nucleus followed by complete condensation and nuclear fragmentation (Hacker, G., 2000). Apoptotic cells eventually break up into membrane bound vesicles, which are known as apoptotic bodies. Hoechst 33342 is a fluorescent DNA-binding dye that allows visualization of chromatin distribution within a cell. Apoptotic nuclei have highly condensed chromatin, often in crescent shapes around the periphery of the nucleus.
A further indication of apoptotic activity, in addition to the assays described above, can be derived from observations of changes in cell architecture evident after induction of apoptosis. Hoechst 33342 is a fluorescent DNA-binding dye that allows visualization of chromatin distribution within a cell.
Cells undergoing apoptosis show several characteristic morphological changes. These changes include cell shrinkage and rounding, and the formation of cytoplasmic blebs on the cell surface. Nuclear material condenses along the edge of the nucleus followed by complete condensation and nuclear fragmentation (Hacker, G., 2000). […]

MCF-7 cells = assay: Dual Sensor: MitoCasp Assay in MCF-7 breast cancer cells; details: 5 and 10 μM, 24 hours
From the text: as §1, with “process.” for “process. When caspases are activated, they cleave target proteins; one of the most important of these is poly-(ADP-ribose) polymerase (PARP), which is a protein located in the nucleus.”
MCF-7 cells were treated with 5.0 μM and 10 μM of saponins PC1526, PC1464 and PC1422 for 24 hours and assessed using Dual Sensor: MitoCasp™ Assay.

Substance	Caspase 9 positive cells (PC-3 cells; 7 μM PC1448, 20 hr)	Caspase 9 positive cells (PC-3 cells; 10 μM PC1448, 20 hr)	Caspase 9 positive cells (PC-3 cells; 14 μM PC1448, 10 hr)	Caspase 9 positive cells (PC-3 cells; 14 μM PC1448, 15 hr)	Caspase 9 positive cells (PC-3 cells; 14 μM PC1448, 20 hr)	Increase in cells with caspase 9 activity vs untreated (PC-3 cells; 14 μM PC1448, 20 hr (concentration range))	Caspase 9 positive cells (PC-3 cells; 14 μM PC1448, 20 hr (concentration series))	Increase in cells showing caspase 9 activity vs untreated (PC-3 cells; 14 μM PC1448, 20 hr (time course))	Caspase 9 positive cells (PC-3 cells; 14 μM PC1448, 40 hr)	Caspase 9 positive cells (PC-3 cells; 17 μM PC1448, 20 hr)	Caspase 3/7 activity compared to untreated cells / induction of apoptosis (in words, FIG. 5) (HT-29 cancer cells)	Induction of apoptosis (in words, FIG. 8) (WiDr colon cancer cells)	Nuclear morphology after Hoechst 33342 staining (in words, FIG. 4) [1]	Induction of apoptosis (in words, FIG. 16) (MCF-7 cells)
Segetoside H [PC1448]	47.7%	73.9%	37.3%	44.2%	48.0%	six fold	75.3%	six fold	29.4%	65.6%	increase in caspase 3/7 activity	induces apoptosis	nuclear changes characteristic of apoptotic cells	
Segetoside I [PC1464]														do not induce apoptosis
